This note sets out measurements from patent US5225528A, “Cyclic hexapeptide oxytocin antagonists” (priority 1990, dated 1993).

One assay concerns the target T1, uterine OT receptors (Rattus norvegicus, UniProt P70536).
T1 construct: from tissue; host or cells: uterus of DES-treated rats, crude membranes
T1 sequence (P70536 1-388): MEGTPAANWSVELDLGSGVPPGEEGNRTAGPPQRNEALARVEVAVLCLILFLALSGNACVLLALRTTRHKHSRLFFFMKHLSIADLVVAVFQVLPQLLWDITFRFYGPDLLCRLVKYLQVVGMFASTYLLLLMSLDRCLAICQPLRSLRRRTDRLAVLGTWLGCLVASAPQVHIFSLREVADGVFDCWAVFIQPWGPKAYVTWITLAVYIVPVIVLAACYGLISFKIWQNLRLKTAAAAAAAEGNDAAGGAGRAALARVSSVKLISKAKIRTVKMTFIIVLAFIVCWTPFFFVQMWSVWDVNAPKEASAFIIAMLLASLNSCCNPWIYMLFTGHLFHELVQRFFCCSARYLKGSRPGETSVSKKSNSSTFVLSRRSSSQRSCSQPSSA
Description: [^3 H]OT binding to uterine OT receptors, crude membrane preparation of uteri from DES-treated rats. The note with it: for inhibition at 0.1 µM: 1 h, @ 100 (nM), read-out: [^3 H]OT: percent inhibition of radioligand at the given concentration; for IC50: rat uterus membranes, 1 nM [^3 H]OT, read-out: Receptor Binding Results IC50 (nM) [^3 H]OT. The procedure:
Competition studies were conducted at equilibrium (60 minutes; 22° C.) using 1 nM [^3 H]OT in the following assay buffer: 50 mM Tris-HCl, 5 mM MgCl2, and 0.1% BSA, pH 7.4.

The target of another assay is T2, AVP-V1 sites (Rattus norvegicus, UniProt P30560).
T2 construct: crude membrane preparation of male rat liver (AVP-V1 sites); from tissue; host or cells: male rat liver, crude membranes
T2 sequence (P30560 whole entry): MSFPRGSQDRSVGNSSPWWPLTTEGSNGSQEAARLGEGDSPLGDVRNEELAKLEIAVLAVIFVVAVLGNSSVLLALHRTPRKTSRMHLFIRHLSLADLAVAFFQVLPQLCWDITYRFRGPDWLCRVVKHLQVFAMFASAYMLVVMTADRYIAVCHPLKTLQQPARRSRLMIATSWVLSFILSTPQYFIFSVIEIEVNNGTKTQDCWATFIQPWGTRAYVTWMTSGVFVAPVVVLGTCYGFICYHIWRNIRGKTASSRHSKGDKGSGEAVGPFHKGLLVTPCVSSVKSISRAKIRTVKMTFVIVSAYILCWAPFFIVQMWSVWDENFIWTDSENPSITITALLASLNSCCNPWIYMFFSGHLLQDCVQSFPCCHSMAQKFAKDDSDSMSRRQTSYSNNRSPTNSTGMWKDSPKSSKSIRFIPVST
Description: [^3 H]AVP binding to crude membrane preparation of male rat liver (AVP-V1 sites). As for the experimental part: (§1) Nonspecific binding (5-10% of the total binding) was determined using 10 μM unlabeled AVP, and the binding reaction was terminated by filtration as described above for the [^3 H]OT binding assay.

The target in the next assay is T3, AVP-V2 sites (Rattus norvegicus, UniProt Q00788).
T3 construct: male rat liver (AVP-V1 sites) or kidney medulla (AVP-V2 sites); from tissue; host or cells: male rat kidney medulla, crude membranes
T3 sequence (Q00788 whole entry): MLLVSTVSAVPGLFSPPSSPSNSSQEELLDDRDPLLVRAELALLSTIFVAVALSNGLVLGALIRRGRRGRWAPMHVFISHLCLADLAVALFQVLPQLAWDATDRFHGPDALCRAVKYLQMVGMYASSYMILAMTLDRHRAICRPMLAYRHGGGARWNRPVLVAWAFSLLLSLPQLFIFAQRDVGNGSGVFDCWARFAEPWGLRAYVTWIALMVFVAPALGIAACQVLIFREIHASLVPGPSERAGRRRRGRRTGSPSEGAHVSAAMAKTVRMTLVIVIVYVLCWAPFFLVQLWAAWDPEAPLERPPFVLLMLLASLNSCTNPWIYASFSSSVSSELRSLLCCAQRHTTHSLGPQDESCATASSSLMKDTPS
Briefly: [^3 H]AVP binding to crude membrane preparation of male rat kidney medulla (AVP-V2 sites). As for the experimental part:
as §1

Where [1] appears, read: Receptor Binding Results IC50 (nM) [^3 H]-AVP-V1.
Setting [2] is: rat kidney medulla membranes, 2 nM [^3 H]AVP, read-out: Receptor Binding Results IC50 (nM) [^3 H]-AVP-V2.

Read-outs that look alike come from different tables or passages of the source. Square brackets hold non-standard residues; d marks the D form. Peptide text beside a SMILES is read from it. * marks the point of attachment. dPiz(1,6-dehydro) = O=C(O)[C@H]1CCC=NN1; dNMeY = CN[C@H](Cc1ccc(O)cc1)C(=O)O; Pip(4-aza) = O=C(O)[C@@H]1CNCCN1; dNMeF = CN[C@H](Cc1ccccc1)C(=O)O; dPip(4-aza) = O=C(O)[C@H]1CNCCN1; Pip = O=C(O)[C@@H]1CCCCN1; dPip = O=C(O)[C@H]1CCCCN1; Orn = NCCC[C@H](N)C(=O)O; Cbz = O=C(OCc1ccccc1)*; Boc = CC(C)(C)OC(=O)*; Bn = c1ccc(C*)cc1; OtBu = CC(C)(C)O*

A word on the IC50: it is the concentration that inhibits the measured activity by half. `CC[C@H](C)[C@@H]1NC(=O)[C@@H](Cc2c[nH]c3ccccc23)NC(=O)[C@@H]2CCCN2C(=O)[C@@H](CC(=O)OC(C)(C)C)NC(=O)[C@@H]2CCCCN2C(=O)[C@H]2CCCCN2C1=O` [Example 172, c-[D-Tryptophanyl-L-isoleucinyl-D-pipecolyl-L-pipecolyl-D-(β-t-butyl)aspartyl-L-prolyl]] (cyclo(I[dPip][Pip][dD](OtBu)P[dW])): on uterine OT receptors, the inhibition at 0.1 µM turned out to be 20%. Further, the IC50 on AVP-V1 sites (setting [1]) and at AVP-V2 sites (setting [2]) was more than 10000 nM each time.

Consider `CC[C@H](C)[C@@H]1NC(=O)[C@@H](Cc2c[nH]c3ccccc23)NC(=O)[C@@H]2CCCN2C(=O)[C@@H](Cc2ccccc2)N(C)C(=O)[C@H](CCCNC(=O)OC(C)(C)C)NC(=O)[C@H]2CCC=NN2C1=O` [Example 126, c-[D-Tryptophanyl-L-isoleucyl-D-Δ-piperazyl (N^δ -Boc)-L-ornithyl-N-methyl-D-phenylalanyl-L-prolyl]] (cyclo(I[dPiz(1,6-dehydro)][Orn](Boc)[dNMeF]P[dW])), for which the IC50 was 15 nM at uterine OT receptors, more than 1000 nM at AVP-V1 sites (setting [1]) and 1000 nM on AVP-V2 sites (Receptor Binding Results IC50 (nM) [^3 H]-AVP-V2).

As for `CC[C@H](C)[C@@H]1NC(=O)[C@@H](Cc2ccccc2)NC(=O)[C@@H]2CCCN2C(=O)[C@@H](Cc2ccc(OCc3ccccc3)cc2)N(C)C(=O)[C@@H]2CCCCN2C(=O)[C@H]2CCCCN2C1=O` [Example 28, Cyclo[D-phenylalanyl-L-isoleucyl-D-pipecolyl-L-pipecolyl-D-(N^α methyl-O-Benzyl)-tyrosyl-L-prolyl]] (cyclo(I[dPip][Pip][dNMeY](Bn)P[dF])), at uterine OT receptors, the inhibition at 0.1 µM came out at 28%. The figures for the IC50 at AVP-V1 sites (setting [1]) and at AVP-V2 sites (setting [2]) were more than 10000 nM and 10000 nM, respectively.

For “c-[D,L-3-(3-(5-Methyl)indolyl)alanyl-L-isoleucyl-D-pipecolyl-L-pipecolyl-D- histidyl-L-prolyl] [Example 154]”, the IC50 came out at 680 nM on uterine OT receptors; 13000 nM at AVP-V1 sites (rat liver membranes, 1 nM [^3 H]AVP, read-out: Receptor Binding Results IC50 (nM) [^3 H]-AVP-V1); 7300 nM on AVP-V2 sites (setting [2]).

For `CC[C@H](C)[C@@H]1NC(=O)[C@@H](Cc2c[nH]c3ccccc23)NC(=O)[C@@H]2CCCN2C(=O)[C@@H](Cc2ccccc2)N(C)C(=O)[C@H](CCCNC(=O)OCc2ccccc2)NC(=O)[C@H]2CCCCN2C1=O` [Example 34, Cyclo[D-trytophanyl-L-isoleucyl-D-pipecolyl-L-(carbobenzyloxy)ornithyl-D-(N^α methyl)phenylalanyl-L-prolyl]] (cyclo(I[dPip][Orn](Cbz)[dNMeF]P[dW])), the IC50 was 100 nM on uterine OT receptors, more than 1000 nM at AVP-V1 sites (setting [1]) and 10000 nM at AVP-V2 sites (setting [2]).

Take `CC[C@H](C)[C@@H]1NC(=O)[C@@H](Cc2ccccc2)NC(=O)[C@@H]2CCCN2C(=O)[C@@H](Cc2ccccc2)NC(=O)[C@@H]2CNCCN2C(=O)[C@H]2CNCCN2C1=O` [Example 80, c-[D-Phenylalanyl-L-isoleucinyl-D-piperazin-2-yl-L-piperazin-2-yl-D-phenylalanyl-L-prolyl]] (cyclo(I[dPip(4-aza)][Pip(4-aza)][dF]P[dF])): the IC50 was 10000 nM at uterine OT receptors, more than 10000 nM on AVP-V1 sites (setting [1]) and more than 10000 nM on AVP-V2 sites (setting [2]).

With `CC[C@H](C)[C@@H]1NC(=O)[C@@H](Cc2ccccc2)NC(=O)[C@@H]2CCCN2C(=O)[C@@H](Cc2ccccc2)NC(=O)[C@H](CC(N)=O)NC(=O)[C@@H](CCC(N)=O)NC1=O` [Example 102] (cyclo([dF]I[dQ]N[dF]P)), the IC50 at uterine OT receptors, at AVP-V1 sites (setting [1]) and on AVP-V2 sites (setting [2]) was more than 10000 nM in each case.
